These are literature values, as cited in patent US20010006673A1, “LUTEIN- CONTAINING SUPPLEMENT AND PROCESS FOR ENHANCING IMMUNE RESPONSE IN ANIMALS” (priority 1998, published 2001).

Data set [1] relates to human neuroblastoma cell. The following applies: cited from earlier work.
The subject of data set [2] is mouse splenocytes. Conditions: cited from earlier work.
For data set [3], the system named is Splenocytes. The following applies: splenocytes from mice injected peritoneally; cited from earlier work.
Data set [4] concerns chemical-induced carcinogenesis. Conditions: mice; cited from earlier work.
For data set [5], the system named is tumor necrosis factor (TNF). Conditions: hamsters; cited from earlier work.
Data set [6] relates to lymphocyte. Conditions: rats; cited from earlier work.

Each structure is given as a SMILES string.

Regarding `CC1=CCCC(C)(C)C1/C=C/C(C)=C/C=C/C(C)=C/C=C/C=C(C)/C=C/C=C(C)/C=C/C1=C(C)CCCC1(C)C` (stereo not drawn) [α-carotene], the “Human neuroblastoma cell proliferation” value in data set [1] is “inhibit”.

Turning to `CC1=C(/C=C/C(C)=C/C=C/C(C)=C/C=C/C=C(C)/C=C/C=C(C)/C=C/C2=C(C)C(=O)[C@@H](O)CC2(C)C)C(C)(C)C[C@H](O)C1=O` [astaxanthin], the “Ex vivo antibody response to T-dependent antigens” value in data set [2] is on record as “increase”. The “Antibody response to T-dependent antigens” value in data set [3] is “enhanced”.

Regarding `CC1=C(/C=C/C(C)=C/C=C/C(C)=C/C=C/C=C(C)/C=C/C=C(C)/C=C/C2=C(C)C(=O)CCC2(C)C)C(C)(C)CCC1=O` [canthaxanthin], the Chemical-induced carcinogenesis entry in data set [4] was “prevent”. Besides, the “Production of tumor necrosis factor (TNF) by macrophages” value in data set [5] is on record as “enhance”. Besides, the Lymphocyte proliferation result in data set [6] is given as “increase”.

With `CC1=C(/C=C/C(C)=C/C=C/C(C)=C/C=C/C=C(C)/C=C/C=C(C)/C=C/C2=C(C)CCCC2(C)C)C(C)(C)CCC1` [β-carotene], the “Ex vivo antibody response to T-dependent antigens” value in data set [2] was “increase”. For the same compound, in data set [3], the “Antibody response to T-dependent antigens” value is listed as “enhanced”.
